Data published in patent US10709705B2, “Aminopyrimidines as ALK inhibitors” (THE REGENTS OF THE UNIVERSITY OF MICHIGAN, priority 2016, dated 2020).

Columns and labels:
H3122 cells (EML4-ALK) = experiment: Cell growth inhibition assay (WST-8), H3122; type: cell-based; conditions: Homo sapiens, NCI-H3122, read-out: H3122 (nM) (EML4-ALK), 50% of cell growth inhibition (IC50), WST-8, versus DMSO control
Experimental: (§1) H3122 and Kappas-299 cells were purchased from American Type Culture Collection (Manassas, Va., USA) and were used within 2 months after initiating from original stocks. All cell lines were cultured as recommended. For cell growth inhibition assay, cells were treated with different concentrations of the tested compounds, diluted from stock to culture media containing a 0.2% DMSO as the final concentration. Cell viability was determined using the WST-8 cell proliferation assay kit (Dojindo Molecular Technologies) according to manufacturer's instructions. Three independent experiments in triplicates were performed.

[1] = system: Kappas-299 cells (NPM-ALK); experiment: Cell growth inhibition assay (WST-8), Kappas-299; type: cell-based; conditions: read-out: Kappas-299 (nM) (NPM-ALK), 50% of cell growth inhibition (IC50), WST-8, versus DMSO control
Experimental: as §1

ALK L1196M = molecular target: T1, ALK L1196M (Homo sapiens, UniProt Q9UM73, L1196M); experiment: Mutant ALK kinase inhibition, Lance TR-FRET, L1196M; type: biochemical; conditions: Table 5; ATP 100 μM
T1 construct: made in house; host or cells: SF9 insect cells
Experimental: The cytoplasmic domain (amino acid 1058-1620) of wild-type human ALK protein expressed as N-terminal GST-fusion protein was purchased from Carna Biosciences, Inc (Japan). Mutated ALK proteins were expressed in SF9 insect cells with N-terminal tags cleaved after purification. Kinase activities of all enzymes were assessed using a Lance® TR-FRET assay kit from Perkin Elmer Life Sciences (Waltham, Mass.). 2.5 μL of compound solution and 5 μL of protein solution were added into a black low volume 384 well microtiter plate which was incubated for 30 minutes with gentle shaking at room temperature, followed by adding 2.5 μL of fluorescently labeled peptide substrate (ULight™-IRS-1 (Tyr983) Peptide) and ATP mixture solution. The kinase reaction was performed in 50 mM HEPES (pH 7.5) with 1 mM EGTA, 1 mM MgCl2, and 2 mM DTT, 0.01% Tween-20 added right before the assay. Final concentrations of ATP, substrates, and DMSO were 100 μM, 20 nM, and 0.5%, respectively. […] The final mixture was incubated in the dark for 1 hour before the plate was read on a Tecan Infinite M-1000 multi-mode plate reader (Tecan, Durham N.C.) with an excitation wavelength of 320 nm. Emission intensities were measured at both 620 and 665 nm with the intensity ratio between 665 and 620 nm corresponding to the peptide substrate phosphorylation. […]

ALK V1180L = ALK V1180L (Homo sapiens, UniProt Q9UM73, V1180L); experiment: Cell based assay, ALK V1180L; design: key: + = active; −− = inactive; conditions: Table 5
ALK F1174L = ALK F1174L (Homo sapiens, UniProt Q9UM73, F1174L); experiment: Cell based assay, ALK F1174L; design: key: + = active; −− = inactive; conditions: Table 5
ROS1 = molecular target: T2, ROS1 (Homo sapiens, UniProt P08922); experiment: KINOMEscan kinase panel, ROS1; type: binding
T2 construct: purchased LeadHunter Discovery Services (currently DiscoverX Corporation), KINOMEscan screening service
Description: (§2) Cpd. No. 5 was screened for its activity against a panel of human kinases using the KINOMEscan™ screening platform from LeadHunter Discovery Services (currently DiscoverX Corporation (Fremont, Calif. 94538, United States). See Table 7.

LTK = molecular target: T3, LTK (Homo sapiens, UniProt P29376); experiment: KINOMEscan kinase panel, LTK; type: binding
T3 construct: purchased LeadHunter Discovery Services (currently DiscoverX Corporation), KINOMEscan screening service
Description: as §2

LRRK2 = molecular target: T4, LRRK2 (Homo sapiens, UniProt Q5S007); experiment: KINOMEscan kinase panel, LRRK2; type: binding
T4 construct: purchased LeadHunter Discovery Services (currently DiscoverX Corporation), KINOMEscan screening service
Description: as §2

LRRK2(G2019S) = molecular target: T5, LRRK2(G2019S) (Homo sapiens, UniProt Q5S007, G2019S); experiment: KINOMEscan kinase panel, LRRK2(G2019S); type: binding
T5 construct: purchased LeadHunter Discovery Services (currently DiscoverX Corporation), KINOMEscan screening service
Description: as §2

FER = molecular target: T6, FER (Homo sapiens, UniProt P16591); experiment: KINOMEscan kinase panel, FER; type: binding
T6 construct: purchased LeadHunter Discovery Services (currently DiscoverX Corporation), KINOMEscan screening service
Description: as §2

FES = molecular target: T7, FES (Homo sapiens, UniProt P07332); experiment: KINOMEscan kinase panel, FES; type: binding
T7 construct: purchased LeadHunter Discovery Services (currently DiscoverX Corporation), KINOMEscan screening service
Description: as §2

IGF1R = molecular target: T8, IGF1R (Homo sapiens, UniProt P08069); experiment: KINOMEscan kinase panel, IGF1R; type: binding
T8 construct: purchased LeadHunter Discovery Services (currently DiscoverX Corporation), KINOMEscan screening service
Description: as §2

INSR = molecular target: T9, INSR (Homo sapiens, UniProt P06213); experiment: KINOMEscan kinase panel, INSR; type: binding
T9 construct: purchased LeadHunter Discovery Services (currently DiscoverX Corporation), KINOMEscan screening service
Description: as §2

INSRR = molecular target: T10, INSRR (Homo sapiens, UniProt P14616); experiment: KINOMEscan kinase panel, INSRR; type: binding
T10 construct: purchased LeadHunter Discovery Services (currently DiscoverX Corporation), KINOMEscan screening service
Description: as §2

[2] = Pharmacokinetics in SD rats; type: in vivo; conditions: Table 8 (SD rats); for AUC0-t (ng · h/mL) PO / AUC0-∞ (ng · h/mL) PO / Cmax(ng/mL) PO / Tmax (h) PO / t1/2 (h) PO: PO 10 mg/kg, 10 mg/kg
Experimental: (§3) Routine pharmacokinetics studies were performed for Cpd. No. 5 in SD rats and beagle dogs.

[3] = Pharmacokinetics in beagle dogs; type: in vivo; conditions: Table 9 (beagle dogs)
Experimental: as §3

[4] = Sprague-Dawley, rat, in vivo, iv, 1 mg/kg, IV 1 mg/kg
[5] = listed as Cpd. No. 5 (solution)
[6] = listed as Cpd. No. 5 (suspension)

Cc1cc(Nc2ncc(Cl)c(Nc3ccccc3S(=O)(=O)C(C)C)n2)c(OC(C)C)cc1C1=CCN(C2CCOCC2)CC1 [Cpd. No. 5, 5-chloro-N2-(2-isopropoxy-5-methyl-4-(1-(tetrahydro-2H-pyran-4-yl)-1,2,3,6-tetrahydropyridin-4-yl)phenyl)-N4-(2-(isopropylsulfonyl)phenyl)pyrimidine-2,4-diamine]
IC50 (H3122 cells (EML4-ALK)): 27 nM | IC50 [1]: 13 nM | IC50 (ALK L1196M): 0.73 nM | V1180L (c) (ALK V1180L): + (c) | F1174L (c) (ALK F1174L): −− (c) | Kd (ROS1): 0.73 nM | Kd (LTK): 0.62 nM | Kd (LRRK2): 6.5 nM | Kd (LRRK2(G2019S)): 6.6 nM | Kd (FER): 11 nM | Kd (FES): 12 nM | Kd (IGF1R): 9 nM | Kd (INSR): 54 nM | Kd (INSRR): 32 nM | Cmax [2, 4]: 234 ng/mL | Tmax [2, 4]: 4.98 min | AUC(0-t) ([2]; Sprague-Dawley, rat, in vivo, iv, 1 mg/kg, IV 1 mg/kg, read-out: AUC0-t (ng · h/mL) IV): 506 ng·h/mL | AUC(0-inf) ([2]; Sprague-Dawley, rat, in vivo, iv, 1 mg/kg, IV 1 mg/kg, read-out: AUC0-∞ (ng · h/mL) IV): 576 ng·h/mL | half-life ([2]; Sprague-Dawley, rat, in vivo, iv, 1 mg/kg, IV 1 mg/kg, read-out: t1/2 (h) IV (converted)): 3.94 h | MRT inf ([2]; Sprague-Dawley, rat, in vivo, IV 1 mg/kg): 4.54 h | clearance ([2]; Sprague-Dawley, rat, in vivo, IV 1 mg/kg, read-out: CL (iv) (converted)): 29.2 mL/min/kg | Vd ([2]; Sprague-Dawley, rat, in vivo, IV 1 mg/kg, read-out: Vss (iv)): 7.97 L/kg | F(AUC0-t) ([2]; PO 10 mg/kg vs IV 1 mg/kg, solution): 31.1% | AUC0-t (ng · h/mL) PO [2, 5]: 1759 ng·h/mL | AUC0-∞ (ng · h/mL) PO [2, 5]: 1788 ng·h/mL | Cmax(ng/mL) PO [2, 5]: 153 ng/mL | Tmax (h) PO [2, 5]: 2.67 h | t1/2 (h) PO [2, 5]: 3.93 h | AUC0-t (ng · h/mL) PO [2, 6]: 719 ng·h/mL | AUC0-∞ (ng · h/mL) PO [2, 6]: 733 ng·h/mL | Cmax(ng/mL) PO [2, 6]: 75.9 ng/mL | Tmax (h) PO [2, 6]: 3.67 h | t1/2 (h) PO [2, 6]: 4.05 h | F(AUC0-t) ([3]; PO 5 mg/kg vs IV 1 mg/kg): 33.3% | MRT inf ([3]; dog, in vivo, IV 1 mg/kg): 22.1 h | AUC(0-t) ([3]; dog, in vivo, IV 1 mg/kg, read-out: AUC0-t (ng · h/mL) IV): 1820 ng·h/mL | AUC(0-inf) ([3]; dog, in vivo, IV 1 mg/kg, read-out: AUC0-∞ (ng · h/mL) IV): 2140 ng·h/mL | clearance ([3]; dog, in vivo, IV 1 mg/kg, read-out: CL (iv) (converted)): 8.1 mL/min/kg | Cmax ([3]; dog, in vivo, IV 1 mg/kg, read-out: Cmax(ng/mL) IV): 314 ng/mL | Tmax ([3]; dog, in vivo, IV 1 mg/kg, read-out: Tmax (h) IV): 0.083 h | Vd ([3]; dog, in vivo, IV 1 mg/kg, read-out: Vss (iv)): 10.8 L/kg | half-life ([3]; dog, in vivo, IV 1 mg/kg, read-out: t1/2 (h) IV (converted)): 19.7 h | AUC(0-t) ([3]; dog, in vivo, PO 5 mg/kg, read-out: AUC0-t (ng · h/mL) PO): 2930 ng·h/mL | AUC(0-inf) ([3]; dog, in vivo, PO 5 mg/kg, read-out: AUC0-∞ (ng · h/mL) PO): 3710 ng·h/mL | Cmax ([3]; dog, in vivo, PO 5 mg/kg, read-out: Cmax(ng/mL) PO): 239 ng/mL | Tmax ([3]; dog, in vivo, PO 5 mg/kg, read-out: Tmax (h) PO): 1.67 h | half-life ([3]; dog, in vivo, PO 5 mg/kg, read-out: t1/2 (h) PO (converted)): 20 h
